The values below come from patent US8158681B2, “Nutraceutical and pharmaceutical compositions and use thereof for the treatment, co-treatment or prevention of inflammatory disorders” (DSM IP Assets B.V., priority 2006, dated 2012).

What all share (assay type): cell-based, murine
In assay [1] the test system is nitric oxide (NO) production, RAW264.7. The experiment in a line: Inhibition of nitric oxide production in LPS-stimulated RAW264.7 macrophages (Griess reaction). Conditions: single compounds, RAW264.7, 1 μg/ml LPS, 24 hours. The protocol: (§1) Pure compounds were assayed in vitro in cellular systems. The inhibition of the synthesis of pro-inflammatory prostaglandins (PG) and of nitric oxide by the extracts or compounds was measured. PGE2 plays a critical role in the inflammation process, while nitric oxide (NO) is a hallmark of inflammation in various chronic inflammatory diseases including various forms of arthritis, gastrointestinal diseases and metabolic syndrome X.
(§2) The effects of extracts or compounds on the inflammatory response were tested in cellular assays using a murine macrophage indicator cell line, RAW264.7. The cells were purchased from ATCC (Manassas, Va., USA) and cultured in DMEM containing streptomycin/penicillin, non-essential amino acids and 10% fetal calf serum (FCS). In order to test a large range of concentration of compounds, cells (˜50′000/well) were seeded into flat-bottomed microtiter plates and cultured for one day. Cells were then starved in complete medium containing 0.25% FCS (D-025). After overnight culture, medium was removed and replaced by 100 μL of D-025 containing the test compounds at twice the final concentration. Subsequently, 100 μL of D-025 containing 2 μg/ml LPS was added (i.e. final LPS concentration of 1 μg/ml) and the cells cultured for 24 hours.
(§3) Compounds were usually tested in a concentration range from 0.2 to 50 μM in two-fold dilution steps. Extracts were tested in a range from 0.2-50 mg/L. All treatments were done in duplicates and several experimental series were done for each treatment. Concentrations of nitrite, which was rapidly formed from nitric oxide released by cells, were determined by the Griess reaction using sodium nitrite as standard. Briefly, 50 μl of supernatant was mixed with Griess reagent 1 (25 μL) and Griess reagent 2 (25 μL), centrifuged and the optical density at 540 nm determined. PGE2 secreted into the cell culture medium was determined by EIA obtained from Cayman Chemicals (Ann Harbor, Wis., USA) and used according to the manufacturer's instructions. All determinations were done in duplicates and at various dilutions of the culture supernatant. IC50 values were calculated using a […] least-square fitting equation [y=A+((B−A)/(1+((C−x)^D))] for best-fit curves (Excel fit software program).

Assay [2] has as its system PGE2 production, RAW264.7. Description: Inhibition of PGE2 production in LPS-stimulated RAW264.7 macrophages (EIA). Conditions: single compounds, RAW264.7, 1 μg/ml LPS, 24 hours. The method, then:
as §1, §2, §3

For assay [3], the system named is inducible nitric oxide synthase (iNOS) mRNA. The experiment in a line: Expression of inflammatory genes in stimulated RAW 264.7 cells, quantitative RT-PCR: iNOS. Conditions: RAW 264.7, 4 hours. The protocol:
(§4) The effect of the compounds has also been evaluated on the level of the expression of genes that are involved in the inflammatory response. These comprise genes of the prostaglandin synthesis pathway, cytokines and chemokines or inducible nitric oxide synthase (iNOS). RAW 264.7 cells were stimulated in the presence of different concentrations of substances. After 4 hours, RNA was extracted and the expression of genes determined by quantitative RT-PCR as described (Richard, N., Porath, D., Radspieler, A. and Schwager, J. Effects of resveratrol, piceatannol, tri-acetoxystilbene, and genistein on the inflammatory response of human peripheral blood leukocytes. Mol Nutr Food Res 2005. 49: 431-442). […] Collectively, the results reveal significant effects of the compounds on the expression of distinct genes involved in the inflammatory response.

Assay [4] has as its system interleukin-10 (IL-10) mRNA. Description: Expression of inflammatory genes in stimulated RAW 264.7 cells, quantitative RT-PCR: IL-10. Conditions: RAW 264.7, 4 hours. The protocol:
as §4

Assay [5] concerns matrix metalloproteinase 9 (MMP-9) mRNA. Description: Expression of inflammatory genes in stimulated RAW 264.7 cells, quantitative RT-PCR: MMP-9. Conditions: RAW 264.7, 4 hours. The protocol: as §4
In another assay the test system is IL-1 alpha mRNA. Description: Expression of inflammatory genes in stimulated RAW 264.7 cells, quantitative RT-PCR: IL-1 alpha. Conditions: 25 μM/L Amorfrutin A; RAW 264.7, 4 hours. The protocol: as §4

For orientation: IC50 means the midpoint of a concentration-inhibition curve. A higher IC50 goes with weaker potency in that assay. For the compound `C=C(C)C(O)Cc1c(OC)cc(CCc2ccccc2)c(C(=O)O)c1O` (stereo not shown) [2-hydroxy-4-methoxy-3-(2-hydroxy-3-methyl-3-butenyl)-6-(2-phenylethyl)-benzoic acid], the 50% inhibitory concentration (IC50) is 14.6 ± 0.3 µM in assay [1] (Mus musculus) and 40.7 ± 11.8 µM in assay [2] (Mus musculus).
Consider `C=C(C)C(O)Cc1c(OC)cc(CCCCC)c(C(=O)O)c1O` (stereo not shown) [2-hydroxy-4-methoxy-3-(2-hydroxy-3-methyl-3-butenyl)-6-pentyl-benzoic acid], for which the half-inhibitory concentration (IC50) in assay [1] (Mus musculus) came out at 22.1 ± 1.6 µM; in assay [2] (Mus musculus) it was 18.9 ± 1.6 µM.
For `CCCCCc1cc(OC)c(CC=C(C)C)c(O)c1C(=O)O` [2-hydroxy-4-methoxy-3-(3-methyl-2-butenyl)-6-pentyl-benzoic acid] the same measures were 10.9 ± 1.2 µM and greater than 50 µM.
`COc1cc(CCc2ccccc2)c(C(=O)O)c(O)c1CC=C(C)C` [Amorfrutin A (III), Amorfrutin A]: the “% expression of iNOS mRNA relative to cells stimulated with LPS only (=100%)” value in assay [3] (25 μM/L Amorfrutin A) is recorded as 52%. In addition, the “Effect on iNOS gene expression (in words)” value in assay [3] (RT-PCR) was “significantly reduced”. The IC50 in assay [1] was 7.1 ± 0.1 µM; in assay [2] it was 74.1 ± 12.1 µM. Also, the “% expression of IL-10 mRNA relative to cells stimulated with LPS only (=100%)” value in assay [4] (25 μM/L Amorfrutin A) is reported as 22%. In addition, in assay [4] (RT-PCR), the “Effect on IL-10 gene expression (in words)” value is reported as “significantly reduced”. Besides, in assay [5] (25 μM/L Amorfrutin A), the “% expression of MMP-9 mRNA relative to cells stimulated with LPS only (=100%)” value was found to be 69%. For the same compound, the “Effect on MMP-9 gene expression (in words)” value in assay [5] (RT-PCR) was “significantly reduced”. For the same compound, the “% expression of IL-1 alpha mRNA relative to cells stimulated with LPS only (=100%)” value in the assay with IL-1 alpha mRNA came to 94%.
On to `COc1cc(CCc2ccccc2)c(C(=O)O)c(O)c1C/C=C(\C)CCC=C(C)C` [Amorfrutin B (II), Amorfrutin B], for which the IC50 in assay [1] was 22.8 ± 4.1 µM; in assay [2] it was greater than 100 µM.
For the compound `CCCCCc1cc(OC)c(C/C=C(\C)CCC=C(C)C)c(O)c1C(=O)O` [Cannabigerolic acid monomethyl ether], the IC50 in assay [1] is 31.3 ± 2.5 µM; in assay [2], 17.9 ± 11.6 µM.
